Reference: ChEMBL document CHEMBL1151059, “Synthesis and x-ray structure of a potent superpositional analog of the enantiomeric forms of fluoxetine” (Bioorg Med Chem Lett, 1993)

Assay: Tested in vitro for inhibition of Serotonin uptake
Assay type: functional

Structure (SMILES) | Activity
CNCCC(Oc1ccc(C(F)(F)F)cc1)c1ccccc1 (configuration not stated) | 700 nM
FC(F)(F)c1ccc(OC2(c3ccccc3)CCNCC2)cc1 | 580 nM
